Experiments:
[1] = system: Corn (CN); test: Post-emergence herbicide test, corn; assay type: in vivo, Zea mays; settings: two weeks
Protocol: (§1) All crop and weed species were planted individually in 3" plastic pots containing potting soil. Four seeds each of corn, cotton, and snapbeans were seeded to a depth equal to the diameter of the seed. All other species were surface seeded and sprinkled with screened soil in an amount sufficient to cover the seed. Immediately after planting, all pots were watered by sub-irrigation in greenhouse trays. Pots for the pre-emergence phase were seeded one day before treatment.
(§2) Planting dates for the post-emergence phase were varied so that all seedlings would reach the desired stage of development simultaneously. The proper stage of seedling development for treatment in the post-emergence phase is as follows:
(§3) Compounds were tested at rates of application equivalent to 8 lbs. of actual compound per acre in a spray volume of 38 gallons per acre. Spray hood constants required to deliver the above volume are as follows:
(§4) Formulations for spray applications were prepared in 50 ml volumes with the following three components:
(§5) Formulations for the 4 lbs/acre rate were prepared by adjusting the amount of active ingredient accordingly.
(§6) Spray applications were made in a hood containing a removable belt and fixed spray nozzle. For passage through the spray hood, one pot of each specie (pre-emergence phase) was placed on the rear half of the flat. Treatments were removed to the greenhouse after spraying. Watering during the observation period was done only by sub-irrigation.
(§7) Two weeks after treatment, pre- and post-emergence injury or control was visually rated, and the results were as shown in the following tables. Pre-emergence data are provided in TABLE III and post-emergence data are provided in TABLE IV, for compounds having the formula illustrated in TABLE I. Correspondingly, pre-emergence and post-emergence data, respectively, are set forth in TABLES V AND VI, for compounds having the formula illustrated in TABLE II.

[2] = system: a variety of crops and weed species; test: Pre- and post-emergence herbicide tests, overall assessment of TABLES III-VI; assay type: in vivo; settings: from data of TABLES III-VI
Protocol: as §1, §2, §3, §7
Typical of such compounds are: 1, 2, 5, 26, 36, and 37.

[3] = system: Amaranth pigweed (PW); test: Post-emergence herbicide test, amaranth pigweed; assay type: in vivo, Amaranthus retroflexus; settings: two weeks
Protocol: (§8) Amaranth pigweed (PW)--Amaranthus retroflexus
as §1, §2
(§9) Pigweed and turnips: 1 or 2 true leaves above visible cotyledons.
as §3, §4, §5, §6, §7

[4] = system: Yellow foxtail grass (YF); test: Pre-emergence herbicide test, yellow foxtail grass; assay type: in vivo, Setarin glauca; settings: two weeks
Protocol: (§10) Yellow foxtail grass (YF)--Setarin glauca
as §1
(§11) Spray hood constants required to deliver the above volume are as follows:
(§12) Formulations for spray applications were prepared in 50 ml volumes with the following three components: […]
as §6, §7

[5] = system: Yellow foxtail grass (YF); test: Post-emergence herbicide test, yellow foxtail grass; assay type: in vivo, Setarin glauca; settings: two weeks
Protocol: as §10, §1, §2, §3, §4, §5, §6, §7

[6] = system: Turnip (TP); test: Pre-emergence herbicide test, turnip; assay type: in vivo, Brassica sp.; settings: two weeks
Protocol: (§13) Turnip (TP)--Brassica sp.
as §1, §11, §12, §6, §7

[7] = system: Cotton (CT); test: Post-emergence herbicide test, cotton; assay type: in vivo, Gossypium hirsutum var. DPL smooth leaf; settings: two weeks
Protocol: (§14) Cotton (CT)--Gossypium hirsutum var. DPL smooth leaf
as §1, §2
cotton: first true leaf 1" in length; expanded cotyledons.
as §11, §4, §5, §6, §7

[8] = system: Johnson grass (JG); test: Post-emergence herbicide test, Johnson grass; assay type: in vivo, Sorgum helepense; settings: two weeks
Protocol: (§15) Johnson grass (JG)--Sorgum helepense
as §1, §2, §11, §12, §6, §7

[9] = system: Barnyard grass (BG); test: Pre-emergence herbicide test, barnyard grass; assay type: in vivo, Echinochloa crus-galli; settings: two weeks
Protocol: (§16) Barnyard grass (BG)--Echinochloa crus-galli
as §1, §3, §4, §5, §6, §7

[10] = system: Johnson grass (JG); test: Pre-emergence herbicide test, Johnson grass; assay type: in vivo, Sorgum helepense; settings: two weeks
Protocol: as §15, §1, §11, §12, §6, §7

[11] = system: Bean (BN); test: Post-emergence herbicide test, bean; assay type: in vivo, Phaseolus vulgaris var. Black Valentine; settings: two weeks
Protocol: (§17) Bean (BN)--Phaseolus vulgaris var. Black Valentine
as §1, §2
Beans: primary leaves expanded, growing point at primary leaf nodes.
as §11, §4, §5, §6, §7

[12] = system: Bean (BN); test: Pre-emergence herbicide test, bean; assay type: in vivo, Phaseolus vulgaris var. Black Valentine; settings: two weeks
Protocol: as §17, §1, §3, §4, §5, §6, §7

[13] = system: Turnip (TP); test: Post-emergence herbicide test, turnip; assay type: in vivo, Brassica sp.; settings: two weeks
Protocol: as §13, §1, §2, §9, §11, §12, §6, §7

[14] = system: Cotton (CT); test: Pre-emergence herbicide test, cotton; assay type: in vivo, Gossypium hirsutum var. DPL smooth leaf; settings: two weeks
Protocol: as §14, §1, §3, §4, §5, §6, §7

[15] = system: Corn (CN); test: Pre-emergence herbicide test, corn; assay type: in vivo, Zea mays; settings: two weeks
Protocol: as §1, §3, §4, §5, §6, §7

[16] = system: Crabgrass (CG); test: Pre-emergence herbicide test, crabgrass; assay type: in vivo, Digitaria sanguinalis; settings: two weeks
Protocol: (§18) Crabgrass (CG)--Digitaria sanguinalis
as §1, §11, §4, §5, §6, §7

[17] = system: Crabgrass (CG); test: Post-emergence herbicide test, crabgrass; assay type: in vivo, Digitaria sanguinalis; settings: two weeks
Protocol: as §18, §1, §2, §11, §12, §6, §7

[18] = system: Amaranth pigweed (PW); test: Pre-emergence herbicide test, amaranth pigweed; assay type: in vivo, Amaranthus retroflexus; settings: two weeks
Protocol: as §8, §1, §3, §4, §5, §6, §7

[19] = system: Barnyard grass (BG); test: Post-emergence herbicide test, barnyard grass; assay type: in vivo, Echinochloa crus-galli; settings: two weeks
Protocol: as §16, §1, §2, §11, §12, §6, §7

## CCN(C(=O)NC)c1nnc(C(F)(F)F)s1 [Example 37]
[1]; Zea mays, post-emergence, 336 h, 4 lb/acre
  pest or weed control at 4483.4 g/ha: 30%
[2]
  herbicidal effectiveness and selectivity (in words): extremely effective

## CNC(=O)N(C)c1nnc(C(C)(C)C)s1 [Example 42]
[3]; 2 lb/acre
  POST-EMERGENCE ACTIVITY, % CONTROL: 100%
[3]; 4 lb/acre
  POST-EMERGENCE ACTIVITY, % CONTROL: 100%
[3]; 8 lb/acre
  POST-EMERGENCE ACTIVITY, % CONTROL: 100%
[4]; 2 lb/acre
  PRE-EMERGENCE ACTIVITY, % CONTROL: 90%
[4]; 4 lb/acre
  PRE-EMERGENCE ACTIVITY, % CONTROL: 80%
[4]; 8 lb/acre
  PRE-EMERGENCE ACTIVITY, % CONTROL: 90%
[1]; 2 lb/acre
  POST-EMERGENCE ACTIVITY, % CONTROL: 70%
[1]; 4 lb/acre
  POST-EMERGENCE ACTIVITY, % CONTROL: 70%
[1]; 8 lb/acre
  POST-EMERGENCE ACTIVITY, % CONTROL: 100%
[5]; 2 lb/acre
  POST-EMERGENCE ACTIVITY, % CONTROL: 90%
[5]; 4 lb/acre
  POST-EMERGENCE ACTIVITY, % CONTROL: 90%
[5]; 8 lb/acre
  POST-EMERGENCE ACTIVITY, % CONTROL: 100%
[6]; 2 lb/acre
  PRE-EMERGENCE ACTIVITY, % CONTROL: 100%
[6]; 4 lb/acre
  PRE-EMERGENCE ACTIVITY, % CONTROL: 90%
[6]; 8 lb/acre
  PRE-EMERGENCE ACTIVITY, % CONTROL: 100%
[7]; 2 lb/acre
  POST-EMERGENCE ACTIVITY, % CONTROL: 100%
[7]; 4 lb/acre
  POST-EMERGENCE ACTIVITY, % CONTROL: 100%
[7]; 8 lb/acre
  POST-EMERGENCE ACTIVITY, % CONTROL: 100%
[8]; 2 lb/acre
  POST-EMERGENCE ACTIVITY, % CONTROL: 70%
[8]; 4 lb/acre
  POST-EMERGENCE ACTIVITY, % CONTROL: 90%
[8]; 8 lb/acre
  POST-EMERGENCE ACTIVITY, % CONTROL: 100%
[9]; 2 lb/acre
  PRE-EMERGENCE ACTIVITY, % CONTROL: 80%
[9]; 4 lb/acre
  PRE-EMERGENCE ACTIVITY, % CONTROL: 90%
[9]; 8 lb/acre
  PRE-EMERGENCE ACTIVITY, % CONTROL: 90%
[10]; 2 lb/acre
  PRE-EMERGENCE ACTIVITY, % CONTROL: 70%
[10]; 4 lb/acre
  PRE-EMERGENCE ACTIVITY, % CONTROL: 90%
[10]; 8 lb/acre
  PRE-EMERGENCE ACTIVITY, % CONTROL: 100%
[11]; 2 lb/acre
  POST-EMERGENCE ACTIVITY, % CONTROL: 80%
[11]; 4 lb/acre
  POST-EMERGENCE ACTIVITY, % CONTROL: 100%
[11]; 8 lb/acre
  POST-EMERGENCE ACTIVITY, % CONTROL: 100%
[12]; 2 lb/acre
  PRE-EMERGENCE ACTIVITY, % CONTROL: 40%
[12]; 4 lb/acre
  PRE-EMERGENCE ACTIVITY, % CONTROL: 90%
[12]; 8 lb/acre
  PRE-EMERGENCE ACTIVITY, % CONTROL: 100%
[13]; 2 lb/acre
  POST-EMERGENCE ACTIVITY, % CONTROL: 100%
[13]; 4 lb/acre
  POST-EMERGENCE ACTIVITY, % CONTROL: 100%
[13]; 8 lb/acre
  POST-EMERGENCE ACTIVITY, % CONTROL: 100%
[14]; 2 lb/acre
  PRE-EMERGENCE ACTIVITY, % CONTROL: 30%
[14]; 4 lb/acre
  PRE-EMERGENCE ACTIVITY, % CONTROL: 70%
[14]; 8 lb/acre
  PRE-EMERGENCE ACTIVITY, % CONTROL: 90%
[15]; 2 lb/acre
  PRE-EMERGENCE ACTIVITY, % CONTROL: 0%
[15]; 4 lb/acre
  PRE-EMERGENCE ACTIVITY, % CONTROL: 60%
[15]; 8 lb/acre
  PRE-EMERGENCE ACTIVITY, % CONTROL: 90%
[16]; 2 lb/acre
  PRE-EMERGENCE ACTIVITY, % CONTROL: 90%
[16]; 4 lb/acre
  PRE-EMERGENCE ACTIVITY, % CONTROL: 90%
[16]; 8 lb/acre
  PRE-EMERGENCE ACTIVITY, % CONTROL: 90%
[17]; 2 lb/acre
  POST-EMERGENCE ACTIVITY, % CONTROL: 40%
[17]; 4 lb/acre
  POST-EMERGENCE ACTIVITY, % CONTROL: 70%
[17]; 8 lb/acre
  POST-EMERGENCE ACTIVITY, % CONTROL: 100%
[18]; 2 lb/acre
  PRE-EMERGENCE ACTIVITY, % CONTROL: 100%
[18]; 4 lb/acre
  PRE-EMERGENCE ACTIVITY, % CONTROL: 100%
[18]; 8 lb/acre
  PRE-EMERGENCE ACTIVITY, % CONTROL: 100%
[19]; 2 lb/acre
  POST-EMERGENCE ACTIVITY, % CONTROL: 90%
[19]; 4 lb/acre
  POST-EMERGENCE ACTIVITY, % CONTROL: 90%
[19]; 8 lb/acre
  POST-EMERGENCE ACTIVITY, % CONTROL: 100%

Source: patent publication US4599424A, “5-substituted thiadiazole ureas and their use as herbicides” (priority 1979, dated 1986)
